Test results published in patent US6706740B2, “Fungicidal heterocyclic aromatic amides and their compositions, methods of use and preparation” (Dow AgroSciences LLC, priority 1999, dated 2004).
Read-outs that look alike come from different tables or passages of the source.

Key:
[1] = system: Mycosphaerella graminicola (Septoria tritici—SEPTTR); assay: In vitro fungal growth inhibition, Mycosphaerella graminicola (SEPTTR); format: cell-based; settings: Zymoseptoria tritici, read-out: SEPTTR in vitro Growth Inhibition
[2] = system: Magnaporthe grisea (Pyricularia oryzae—PYRIOR); assay: microbe, parasite or virus in culture; format: cell-based; settings: Pyricularia oryzae, read-out: PYRIOR in vitro Growth Inhibition
Septoria tritici—SEPTTR = assay: Leaf Blotch of Wheat, in vivo whole plant, 24 Hour Protectant; settings: control of fungal infection vs untreated plants; for pest or weed control at 100 ppm: Zymoseptoria tritici, 24 h, read-out: SEPTTR in vivo 1 Day Protectant
[3] = system: Puccinia recondita—PUCCRT; assay: Brown Rust of Wheat, in vivo whole plant, 24 Hour Protectant; settings: Puccinia, control of fungal infection vs untreated plants, read-out: PUCCRT in vivo 1 Day Protectant
Ustilago maydis (USTIMA) = assay: microbe, parasite or virus in culture; format: cell-based; settings: Mycosarcoma maydis, read-out: USTIMA in vitro Growth Inhibition
Erysiphe graminis—ERYSGT = assay: Powdery Mildew of Wheat, in vivo whole plant, 24 Hour Protectant; settings: Erysiphe, control of fungal infection vs untreated plants, read-out: ERYSGT in vivo 1 Day Protectant
[4] = system: Stagonospora nodorum (Leptosphaeria nodorum—LEPTNO); assay: In vitro fungal growth inhibition, Stagonospora nodorum (LEPTNO); format: cell-based; settings: Leptosphaeria, read-out: LEPTNO in vitro Growth Inhibition
[5] = system: Phytophthora infestans (PHYTIN); assay: microbe, parasite or virus in culture; format: cell-based; settings: Phytophthora infestans, read-out: PHYTIN in vitro Growth Inhibition
[6] = system: Leptosphaeria nodorum—LEPTNO; assay: Glume Blotch of Wheat, in vivo whole plant, 24 Hour Protectant; settings: control of fungal infection vs untreated plants; for pest or weed control at 100 ppm: Leptosphaeria, read-out: LEPTNO in vivo 1 Day Protectant
[7] = system: Rhizoctonia solani (RHIZSO); assay: microbe, parasite or virus in culture; format: cell-based; settings: Rhizoctonia solani, read-out: RHIZSO in vitro Growth Inhibition
[8] = system: Phytophthora infestans—PHYTIN; assay: whole plant or invertebrate; format: in vivo; settings: Phytophthora, in Solanum lycopersicum, 24 h, read-out: PHYTIN in vivo 1 Day Protectant
[9] = wheat plants sprayed at 100 ppm, inoculated after 24 hours
[10] = 100 ppm spray, 24 hour protectant, wheat
[11] = 100 ppm spray, wheat, 24 hour protectant

Row | Structure (SMILES) | inhibition at 25 ppm [2] [%] | inhibition at 25 ppm (Ustilago maydis (USTIMA)) [%] | inhibition at 25 ppm [5] [%] | inhibition at 25 ppm [7] [%] | pest or weed control at 100 ppm [8] [%] | inhibition at 25 ppm ([1]; 25 ppm in growth medium) [%] | pest or weed control at 100 ppm [3, 10] [%] | pest or weed control at 100 ppm (Erysiphe graminis—ERYSGT; [10]) [%] | inhibition at 25 ppm ([4]; 25 ppm in growth medium) [%] | pest or weed control at 100 ppm [6, 10] [%] | pest or weed control at 100 ppm (Septoria tritici—SEPTTR; [11]) [%] | pest or weed control at 100 ppm [3, 11] [%] | pest or weed control at 100 ppm (Erysiphe graminis—ERYSGT; [11]) [%] | other results
1 | CC(NC(=O)c1nc(Br)ccc1O)c1ccc(C(F)(F)F)cc1 (stereo not shown) [Compound 488] | > 80 | < 80 | < 80 | < 80 | < 25 | – | – | – | – | – | – | – | – | inhibition at 25 ppm ([1]; 25 ppm in the growth medium): < 80%; pest or weed control at 100 ppm (Septoria tritici—SEPTTR; [9]): 25 to 74%; pest or weed control at 100 ppm [3, 9]: 25 to 74%; pest or weed control at 100 ppm (Erysiphe graminis—ERYSGT; [9]): < 25%; inhibition at 25 ppm ([4]; 25 ppm in the growth medium): < 80%; pest or weed control at 100 ppm [6, 9]: < 25%
2 | COc1ccnc(C(=O)NC2C[C@H](C)O[C@@](C)(Cc3ccccc3)C2)c1O (stereo partly shown) [Compound 312] | < 80 | < 80 | < 80 | < 80 | < 25 | < 80 | < 25 | 25 to 74 | < 80 | 25 to 74 | – | – | – | pest or weed control at 100 ppm (Septoria tritici—SEPTTR; [10]): 25 to 74%
3 | COc1ccnc(C(=O)NC(C(=O)OCC(C)C)C(C)OC(=O)C(C)Cc2ccccc2)c1O (stereo not shown) [Compound 360] | < 80 | < 80 | < 80 | < 80 | < 25 | < 80 | – | – | < 80 | – | 25 to 74 | 25 to 74 | < 25 | LEPTNO in vivo 1 Day Protectant [6, 11]: + +
4 | COc1ccnc(C(=O)N[C@@H]2OC[C@@H](OC(C)=O)[C@H](OC(C)=O)[C@H]2OC(C)=O)c1O [Compound 330] | < 80 | < 80 | < 80 | < 80 | < 25 | < 80 | – | – | < 80 | – | < 25 | < 25 | < 25 | pest or weed control at 100 ppm [6, 11]: < 25%
5 | CC(C)C(=O)O[C@H]1[C@H](C)OC(=O)[C@@H](NC(=O)c2nnc(O)nc2O)COC(=O)[C@@H]1Cc1ccccc1 [Compound 544] | < 80 | < 80 | < 80 | < 80 | < 25 | – | – | – | – | – | – | – | – | inhibition at 25 ppm ([1]; 25 ppm in the growth medium): < 80%; pest or weed control at 100 ppm (Septoria tritici—SEPTTR; [9]): 25 to 74%; pest or weed control at 100 ppm [3, 9]: 25 to 74%; pest or weed control at 100 ppm (Erysiphe graminis—ERYSGT; [9]): < 25%; inhibition at 25 ppm ([4]; 25 ppm in the growth medium): < 80%; pest or weed control at 100 ppm [6, 9]: 25 to 74%
6 | COc1ccnc(C(=O)NC2CC(C)(C)CCCC2C)c1O (stereo not shown) [Compound 277] | < 80 | < 80 | < 80 | < 80 | < 25 | > 80 | < 25 | < 25 | > 80 | 25 to 74 | – | – | – | SEPTTR in vivo 1 Day Protectant (Septoria tritici—SEPTTR; [10]): + +
7 | COc1ccnc(C(=O)NC2CC(C)(C)C(Cl)C(Cl)[C@H](C)[C@H]2C)c1O (stereo partly shown) [Compound 281] | > 80 | < 80 | > 80 | < 80 | 25 to 74 | < 80 | 25 to 74 | 25 to 74 | < 80 | 25 to 74 | – | – | – | pest or weed control at 100 ppm (Septoria tritici—SEPTTR; [10]): 25 to 74%
8 | CCCCCCCCCCCCCCCCCC(=O)O[C@H]1[C@H](C)OC(=O)[C@@H](NC(=O)c2nccc(OC)c2O)COC(=O)[C@@H]1Cc1ccccc1 [Compound 398] | > 80 | < 80 | < 80 | < 80 | < 25 | > 80 | – | – | > 80 | – | < 25 | 25 to 74 | < 25 | pest or weed control at 100 ppm [6, 11]: < 25%
